Experimental data reported in PubChem BioAssay AID192 (DTP/NCI, 2004).
Values joined by “and” are separate entries in the source; they are usually repeats but may differ in a detail not shown here. Equal values may be shown once. Inconclusive results and toxic doses are left out. The calls were made as follows: active = survival T/C of 150% or more; inactive = T/C below 125% in these data.

System: BDF1 mice, B16 melanoma ip, median survival T/C
Test: NCI In Vivo Anticancer Drug Screen. Data for tumor model B16 Melanoma (intraperitoneal) in B6D2F1 (BDF1) mice
Conditions: endpoint: median survival time, higher = longer survival
In short: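 Each result divides a survival or tumor-size measurement in the compound-treated group by the same measurement in the vehicle group.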

[1] = dose: 50.0 mg/kg/injection, schedule: Q01DX009 (ip), vehicle: Klucel (hydroxypropylcellulose) (HPC)
[2] = dose: 100.0 mg/kg/injection, schedule: Q01DX009 (ip), vehicle: Klucel (hydroxypropylcellulose) (HPC)
[3] = dose: 100.0 mg/kg/injection, schedule: Q04DX003 (ip), vehicle: Klucel (hydroxypropylcellulose) (HPC)
[4] = dose: 200.0 mg/kg/injection, schedule: Q04DX003 (ip), vehicle: Klucel (hydroxypropylcellulose) (HPC)
[5] = dose: 12.5 mg/kg/injection, schedule: Q01DX009 (ip), vehicle: water
[6] = dose: 25.0 mg/kg/injection, schedule: Q01DX009 (ip), vehicle: water
[7] = dose: 50.0 mg/kg/injection, schedule: Q01DX009 (ip), vehicle: water
[8] = dose: 25.0 mg/kg/injection, schedule: Q01DX009 (ip), vehicle: saline with Tween-80
[9] = dose: 37.5 mg/kg/injection, schedule: Q01DX009 (ip), vehicle: saline with Tween-80
[10] = dose: 100.0 mg/kg/injection, schedule: Q01DX009 (ip), vehicle: saline with Tween-80
[11] = dose: 100.0 mg/kg/injection, schedule: Q01DX009 (ip), vehicle: saline
[12] = dose: 200.0 mg/kg/injection, schedule: Q01DX009 (ip), vehicle: saline
[13] = dose: 400.0 mg/kg/injection, schedule: Q01DX009 (ip), vehicle: saline
[14] = dose: 100.0 mg/kg/injection, schedule: Q04DX003 (ip), vehicle: saline with Tween-80
[15] = dose: 200.0 mg/kg/injection, schedule: Q04DX003 (ip), vehicle: saline with Tween-80
[16] = dose: 50.0 mg/kg/injection, schedule: Q01DX009 (ip), vehicle: saline
[17] = dose: 12.5 mg/kg/injection, schedule: Q01DX009 (ip), vehicle: saline with Tween-80
[18] = dose: 50.0 mg/kg/injection, schedule: Q01DX009 (ip), vehicle: saline with Tween-80

Measured: T/C

NOCc1cccc(CON)c1
inactive: dose: 12.5 mg/kg/injection, schedule: Q04DX003 (ip), vehicle: saline 123 % of control | dose: 25.0 mg/kg/injection, schedule: Q04DX003 (ip), vehicle: saline 118 % of control | dose: 50.0 mg/kg/injection, schedule: Q04DX003 (ip), vehicle: saline 115 % of control

CCCCCCCCCCCCCCCC(=O)NNC(C)C
inactive: dose: 25.0 mg/kg/injection, schedule: Q01DX009 (ip), vehicle: Klucel (hydroxypropylcellulose) (HPC) 96 % of control | [1] 90 % of control | [2] 86 % of control

CCOC(=O)C(Cc1ccccc1)NP(=O)(OCCCl)OCCCl (stereo not drawn)
inactive: [3] 104 % of control | [4] 86 % of control

Cc1cnc([Se])[nH]c1=O
inactive: dose: 6.25 mg/kg/injection, schedule: Q01DX009 (ip), vehicle: water 100 % of control | [5] 96 % of control | [6] 96 % of control | [7] 101 % of control

CC(C)n1c(=S)[nH]c2ccccc2c1=O
inactive: dose: 16.5 mg/kg/injection, schedule: Q01DX009 (ip), vehicle: saline with Tween-80 102 % of control | [8] 94 % of control | [9] 100 % of control | [2] 95 % of control | [10] 87 % of control | [11] 117 % of control | dose: 200.0 mg/kg/injection, schedule: Q01DX009 (ip), vehicle: Klucel (hydroxypropylcellulose) (HPC) 90 % of control

c1ccc(OP(Oc2ccccc2)c2ccccc2)cc1
inactive: dose: 50.0 mg/kg/injection, schedule: Q01DX009 (ip), vehicle: acetone 113 % of control | dose: 100.0 mg/kg/injection, schedule: Q01DX009 (ip), vehicle: acetone 100 % of control | dose: 200.0 mg/kg/injection, schedule: Q01DX009 (ip), vehicle: acetone 100 % of control

COc1ccc(NC(=O)Nc2ccc(Cl)cc2C)cc1
inactive: dose: 100.0 mg/kg/injection, schedule: Q01DX009 (sc), vehicle: olive oil, sesame oil, peanut oil 101 % of control | dose: 200.0 mg/kg/injection, schedule: Q01DX009 (sc), vehicle: olive oil, sesame oil, peanut oil 111 % of control | dose: 400.0 mg/kg/injection, schedule: Q01DX009 (sc), vehicle: olive oil, sesame oil, peanut oil 103 % of control

c1ccc2cc3c(cc2c1)Cn1c-3nc2ccccc21
inactive: dose: 178.0 mg/kg/injection, schedule: Q01DX009 (ip), vehicle: saline with Tween-80 101 % of control | [12] 124 % of control | dose: 266.0 mg/kg/injection, schedule: Q01DX009 (ip), vehicle: saline with Tween-80 100 % of control | dose: 400.0 mg/kg/injection, schedule: Q01DX009 (ip), vehicle: saline with Tween-80 90 % of control | [13] 110 % of control

CC1(C)c2ccccc2C(C)(O)c2ccccc21
inactive: dose: 50.0 mg/kg/injection, schedule: Q04DX003 (ip), vehicle: saline with Tween-80 102 % of control | [14] 111 % of control | [15] 94 % of control

CCCCCCCCCCCCCCCCCC(=O)NCNC(=O)CCCCCCCCCCCCCCCCC
inactive: dose: 2.5 mg/kg/injection, schedule: Q01DX009 (ip), vehicle: saline with Tween-80 102 % of control | dose: 4.68 mg/kg/injection, schedule: Q04DX003 (ip), vehicle: saline with Tween-80 86 % of control | dose: 5.0 mg/kg/injection, schedule: Q01DX009 (ip), vehicle: saline with Tween-80 100 % of control | dose: 9.37 mg/kg/injection, schedule: Q04DX003 (ip), vehicle: saline with Tween-80 97 % of control | dose: 10.0 mg/kg/injection, schedule: Q01DX009 (ip), vehicle: saline with Tween-80 87 % of control

CCOC(=O)c1ccc(N)cc1
inactive: [9] 121 % of control | dose: 37.5 mg/kg/injection, schedule: Q04DX003 (ip), vehicle: saline with Tween-80 102 % of control | dose: 75.0 mg/kg/injection, schedule: Q01DX009 (ip), vehicle: saline with Tween-80 112 % of control | dose: 75.0 mg/kg/injection, schedule: Q04DX003 (ip), vehicle: saline with Tween-80 91 % of control | dose: 150.0 mg/kg/injection, schedule: Q01DX009 (ip), vehicle: saline with Tween-80 107 % of control | dose: 150.0 mg/kg/injection, schedule: Q04DX003 (ip), vehicle: saline with Tween-80 93 % of control

COC1=C(O)C(C(O)CO)OC1=O (stereo not drawn)
inactive: [11] 99 % of control | [12] 110 % of control | [13] 108 % of control

[N-]=[N+]=CC(=O)CCC(N)C(=O)O (stereo not drawn)
inactive: dose: 0.03 mg/kg/injection, schedule: Q01DX009 (ip), vehicle: saline with Tween-80 95 % of control | dose: 0.05 mg/kg/injection, schedule: Q01DX009 (ip), vehicle: saline 115 % of control | dose: 0.06 mg/kg/injection, schedule: Q01DX009 (ip), vehicle: saline with Tween-80 91 % of control | dose: 0.1 mg/kg/injection, schedule: Q01DX009 (ip), vehicle: saline 104 % of control | dose: 0.12 mg/kg/injection, schedule: Q01DX009 (ip), vehicle: saline with Tween-80 95 % of control | dose: 0.13 mg/kg/injection, schedule: Q01DX009 (ip), vehicle: saline 102 % of control | dose: 6.2 micrograms/kg/injection, schedule: Q01DX009 (ip), vehicle: saline 91 % of control | dose: 12.5 micrograms/kg/injection, schedule: Q01DX009 (ip), vehicle: saline 92 % of control | dose: 25.0 micrograms/kg/injection, schedule: Q01DX009 (ip), vehicle: saline 109 % of control

CC[C@]12CN3CCc4c([nH]c5ccccc45)[C@@](C(=O)OC)(c4cc5c(cc4OC)N(C=O)[C@H]4[C@@](O)(C(=O)OC)[C@H](OC(C)=O)[C@]6(CC)C=CCN7CC[C@]54[C@@H]76)C[C@H](C3)[C@H]1O2
active: dose: 4.0 mg/kg/injection, schedule: Q01DX011 (ip), vehicle: saline 159 % of control

CCNCC#CCNCC
inactive: [16] 107 % of control | [11] 94 % of control

O=C1C=CC(=O)N1c1ccc2c(c1)oc(=O)c1ccccc12
inactive: [1] 87 % of control

COC1C(C)OC(OC2CC(C)(O)Cc3cc4c(c(O)c32)C(=O)c2c(O)cc3c(c2C4=O)OC2OC3(C)C(O)C(N(C)C)C2O)C(OC)C1(C)OC (stereo not drawn)
inactive: dose: 0.16 mg/kg/injection, schedule: Q01DX009 (ip), vehicle: other 95 % of control
active: dose: 0.63 mg/kg/injection, schedule: Q01DX009 (ip), vehicle: other 159 % of control | dose: 5.4 mg/kg/injection, schedule: Q04DX003 (ip), vehicle: lactic acid 195 % of control | dose: 9.0 mg/kg/injection, schedule: Q04DX003 (ip), vehicle: lactic acid 171 % of control

S=C=NCCc1ccccc1
inactive: [17] 111 % of control | [8] 114 % of control | [18] 96 % of control

O=C(COc1ccccc1)CC(O)(C(F)(F)F)C(F)(F)F
inactive: [14] 100 % of control | [15] 92 % of control | dose: 400.0 mg/kg/injection, schedule: Q04DX003 (ip), vehicle: saline with Tween-80 97 % of control

C/C(=N\[N+](C)(C)C)c1ccc(Br)cc1
inactive: dose: 25.0 mg/kg/injection, schedule: Q01DX009 (ip), vehicle: saline 88 % of control | [16] 102 % of control | [11] 94 % of control

CC(C)c1cccc(C(C)C)c1OC(=O)Nc1ccccc1Cl
inactive: [3] 100 % of control | [4] 96 % of control

N=C(N)SCCCCCCCCCCSC(=N)N
inactive: dose: 6.25 mg/kg/injection, schedule: Q01DX009 (ip), vehicle: saline with Tween-80 95 % of control | [17] 88 % of control | [8] 86 % of control and 88 % of control

Cc1nc(N)[nH]c(=O)c1Br
inactive: [3] 97 % of control | [4] 93 % of control | dose: 400.0 mg/kg/injection, schedule: Q04DX003 (ip), vehicle: Klucel (hydroxypropylcellulose) (HPC) 89 % of control

COc1cc2cnccc2cc1O
inactive: [5] 104 % of control | [6] 102 % of control | [7] 103 % of control | dose: 100.0 mg/kg/injection, schedule: Q01DX009 (ip), vehicle: water 109 % of control

CNCCOc1ccccc1
inactive: [8] 110 % of control | [18] 101 % of control | [10] 101 % of control
